Data taken from patent US11311523B2, “Pyridinone compound and use thereof” (KYUSHU UNIVERSITY, NATIONAL UNIVERSITY CORPORATION, priority 2015, dated 2022).
Entries after “also recorded” stand apart in the source; their conditions may differ.

Columns and labels:
[1] = system: mouse lung carcinoma cell line (3LL); assay: cellular invasion inhibition assay (Matrigel chamber); assay type: cell-based; conditions: 3LL cells; for inhibition of cancer cell (3LL) invasion: 22 hours, compared to DMSO; for IC50: Mus musculus, FIG. 12(B), read-out: IC50 value calculated from cancer cell invasion inhibition
Experimental: (§1) Pharmacological Test 2 (Cellular Invasion Inhibition Assay)
(§2) Three hundred microliters of a suspension of a mouse lung carcinoma cell line (3LL), a human fibrosarcoma cell line (HT-1080), or a human colon cancer cell line (DLD-1) in DMEM (serum free) was placed in the upper chamber with Matrigel (BD Biosciences) equilibrated with DMEM (serum free) for 120 minutes, while 500 μL of DMEM (with 10% FCS) was placed in the lower chamber. Each pyridinone compound or CPYPP dissolved at a predetermined concentration in DMSO was added to the culture media in both the upper and lower chambers. As a control, DMSO alone was added to the media. In all of the experiments, the final DMSO concentration was adjusted to 0.2%.
(§3) After the resulting products were cultured at 37° C. under 5% CO2 for 22 hours, the chambers were removed, and the culture media were removed. […] After staining, the inserts were cut out with a blade to prepare slides, and the cells were counted under an optical microscope.
(§4) The results were evaluated based on percent cell invasion (%: Invasion) and percent inhibition (%: inhibition). The percent cell invasion was obtained by converting the number of invading cells under each condition to percentage, taking the number of invading cells in the control, to which DMSO was added alone, as 100%; and the percent inhibition was obtained by deducting the percent cell invasion from 100.

[2] = system: human fibrosarcoma cell line (HT-1080); assay: as above; assay type: cell-based; conditions: FIG. 12(C)
Experimental: as §1, §2, §3, §4

[3] = system: mouse spleen T cells; assay: T lymphocyte migration towards CCL21 (Transwell); assay type: cell-based; conditions: FIG. 16(A)
Text: Pharmacological Test. 6 (Evaluation on T Lymphocyte Migration)
Lymphocyte migration plays key roles in immune responses. T cell stimulation by chemokines, such as CCL21, induces actin cytoskeletal remodeling through Rac activation. This drives the cells to migrate towards the source of chemokines.
Therefore, the use of various pyridinone compounds in this assay system enables cell-level verification of DOCK1 selectivity.
Mouse spleen cells at a cell concentration of 1×10^7 cells/mL were precultured at 37° C. for 1 hour in 0.5% BSA-containing RPMI-1640 (Transwell medium) containing DMSO alone or DMSO in which each pyridinone compound was dissolved at a predetermined concentration.
Subsequently, 500 μL of Transwell medium containing 300 ng/mL of CCL21 and DMSO in which each pyridinone compound was dissolved at a predetermined concentration was added to a 24-well plate. […]
After 2-hour incubation at 37° C., the cells that migrated to the lower chamber were collected and stained with PE-labeled anti-Thy1.2 antibody (53-2-1, BD Pharmingen) and APC-labeled anti-B220 antibody (RA-6B-2, eBioscience). The percentage (%) of the migrated cells was calculated by dividing the number of Thy1.2^+ cells (T cells) in the lower chamber by the number of Thy1.2^+ cells (T cells) placed into the Transwell inserts. […]

[4] = molecular target: T1, DHR-2 domain of DOCK1 (Homo sapiens, UniProt Q14185); assay: in vitro GEF assay (Bodipy-FL-GTP loading of Rac); assay type: biochemical; conditions: from IC50 values for DOCK1, DOCK2, DOCK5
T1 construct: Polypeptide fragments that correspond to the DHR-2 domain of DOCK1, DOCK2, or DOCK5; Histidine-SUMO (N); made in house; host or cells: E. coli Arctic express (DE3)
T1 sequence (Q14185 1207-1617 limits assumed): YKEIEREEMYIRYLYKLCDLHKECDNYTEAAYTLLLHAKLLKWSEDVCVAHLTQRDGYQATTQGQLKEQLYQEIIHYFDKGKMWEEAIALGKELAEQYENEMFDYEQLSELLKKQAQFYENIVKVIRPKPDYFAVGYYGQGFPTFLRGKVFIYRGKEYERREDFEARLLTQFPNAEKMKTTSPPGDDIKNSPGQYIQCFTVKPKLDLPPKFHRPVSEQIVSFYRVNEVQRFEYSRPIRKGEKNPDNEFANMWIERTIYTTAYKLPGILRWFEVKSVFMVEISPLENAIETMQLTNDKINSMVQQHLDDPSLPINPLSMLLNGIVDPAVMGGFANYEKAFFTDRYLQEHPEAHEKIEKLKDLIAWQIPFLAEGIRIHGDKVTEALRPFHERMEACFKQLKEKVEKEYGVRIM
Text: Pharmacological Test 1 (In Vitro GEF Assay)
DOCK1, DOCK2, and DOCK5, which are DOCK-A subfamily members, catalyze the GTP-GDP exchange reaction for Rac via the DHR-2 domain to activate Rac.
The in vitro GEF assay referred to in this specification used a labeled GTP (Bodipy-FL-GTP, Invitrogen), whose fluorescence intensity increases when bound to Rac.
Polypeptide fragments that correspond to the DHR-2 domain of DOCK1, DOCK2, or DOCK5 were expressed in E. coli Arctic express (DE3) cells as N-terminal Histidine-SUMO tag-fused recombinant proteins and purified by affinity column chromatography on nickel-NTA columns.
Rac was expressed in E. coli BL21 (DE3) cells as an N-terminal GST tag-fused recombinant protein and purified by affinity column chromatography on glutathione-Sepharose columns.
Subsequently, a reaction solution A containing 20 mM of MES-NaOH, 150 mM of NaCl, 10 mM of MgCl2, and 20 μM of GDP, and having an adjusted pH of 7.0 was incubated at room temperature for 30 minutes while being protected from light in the presence of each of the polypeptide fragments (DHR-2 domains) prepared above and each pyridinone compound or CPYPP dissolved at a predetermined concentration in DMSO or DMSO alone (control) to thus prepare GEF pretreated products. In all of the samples, the final DMSO concentration was adjusted to 3%.
Thereafter, 15 μM of Rac prepared above was added to the reaction solution A and directly allowed to stand on ice for 30 minutes to form a GDP-Rac complex.
Bodipy-FL-GTP was added to 100 μL of the reaction solution A containing the thus prepared GDP-Rac complex to a concentration of 3.6 μM, followed by equilibration at 30° C. for 2 minutes. After equilibration, 50 μL of the pretreated GEF was added for reaction at 30° C.
Changes in fluorescence intensity of Bodipy-FL-GTP were monitored during the reaction using an XS-N (Molecular Devices) or an Enspire spectrofluorometer (Perkin Elmer) (excitation wavelength: 488 nm, emission wavelength: 514 nm). The measured values were corrected so that the fluorescence intensity at the time that the reaction was initiated (0 seconds) was 0.
Then, an approximate curve (hyperbola) was obtained by plotting the calculated correction values on the y axis and the time (t) on the x axis using GraphPad Prism5 (GraphPad software), and the slope at t=0 to 10 seconds was considered to be an initial velocity of guanine nucleotide exchange reaction. The IC50 value was calculated taking the initial reaction velocity of the control, to which only a solvent (DMSO) was added, as 100%.

IC50 [1]	selectivity of GEF inhibition to DOCK1 versus DOCK2 and DOCK5 [4]	Structure (SMILES)	inhibition of cancer cell (3LL) invasion [1]	inhibition of HT-1080 cell invasion [2]	CCL21-stimulated T cell migration [3]
5.6 µM	high selectivity to DOCK1	O=C(Cn1cc(S(=O)(=O)N2CCCC2)ccc1=O)c1ccc(-c2ccc3ccccc3c2)cc1 [TS-28, 1-(2-(4-(naphthalen-2-yl)phenyl)-2-oxoethyl)-5-(pyrrolidin-1-ylsulfonyl)pyridin-2(1H)-one]	significantly excellent inhibitory effect; also recorded: inhibit cancer cell invasion in a concentration-dependent manner	inhibit HT-1080 cell invasion	did not affect
3 µM	high selectivity to DOCK1	O=C(Cn1cc(S(=O)(=O)N2CCCC2)ccc1=O)c1ccc(-c2cccc(C(F)(F)F)c2)cc1 [TS-45, 1-(2-oxo-2-(3′-(trifluoromethyl)-[1,1′-biphenyl]-4-yl)ethyl)-5-(pyrrolidin-1-ylsulfonyl)pyridin-2(1H)-one]	significantly excellent inhibitory effect; also recorded: inhibit cancer cell invasion in a concentration-dependent manner	inhibit HT-1080 cell invasion	did not affect
